Data as given in paper PMC9144902, “Metal(II) Complexes of the Fluoroquinolone Fleroxacin: Synthesis, Characterization and Biological Profile” (Pharmaceutics, 2022).

How the values were obtained:
EB–DNA adduct (CT DNA) = test: Competitive study with EB (EB–DNA fluorescence quenching); format: binding, calf
Experimental: Ethidium bromide is a typical marker of intercalation because it can intercalate between adjacent DNA bases with its planar phenanthridine ring.
The fluorescence emission spectra of the EB–DNA adduct ([EB] = 20 μM, [DNA] = 26 μM) in the absence and presence of the compounds were recorded at increasing amounts of the respective compounds. […] As a conclusion, an intercalative interaction of the complexes with CT DNA can be proposed.
The values of the Stern–Volmer constants (Ksv) for the compounds were calculated using the linear Stern–Volmer equation (Equation (S2)) and were of the order of 10^5 M^−1 (Table 8), indicating tight binding of the complexes with DNA [61]. The Ksv values for the complexes are in the range found for a number of metal(II)–quinolone complexes, and complex 12 presents the highest Ksv value (Ksv = 7.25(±0.30) × 10^5 M^−1) among the compounds studied. In addition, the EB–DNA quenching constants (kq) for the compounds were calculated with Equation (S3), assuming τo = 23 ns as the fluorescence lifetime. The values of kq (Table 8) are much higher than the value of 10^10 M^−1s^−1, indicating a static mechanism of EB–DNA fluorescence quenching induced by the compounds, which can result from the formation of a new adduct apparently consisting of each complex and DNA [61].
In order to determine and confirm the DNA–binding mode of the compounds, a competitive study with EB as an intercalating marker is performed b y fluorescence emission spectroscopy.
Therefo re, the E B–displacing abilit y of the compounds from its EB –DN A conjugate was ex amined.
The DNA–EB adduct was prepared b y addition of 20 μM EB and 26 μM CT DNA in buffer solution (150 mM NaCl and 15 mM trisodium citrate at pH 7.0). The potential intercalation of the compounds between the DNA–bases was studied by the addition of a certain amount of the compound solution into the EB–DNA adduct solution. The influence of the compounds on the EB – DNA solution was monitored through the changes of the fluorescence emission spectra at excitation […]
wavelen gth (λex ) at 540 nm [S3]. […]
room temperature in solution or in the presence of DNA, under the same experimental conditions (λex = 540 nm). Bearing t hat in mind, the observed quenching of the EB–DNA solution is evidentl y associated to the displacement of EB from its EB–DNA adduct.
The quenching effici ency (KSV) for each compound was assessed according to the Stern – Volmer equation: Io =1+ k τ [Q] = 1+ K [Q], (eq. S2) [S3] where I0 and I = the fluorescence […]
emission intensities of EB–DNA in the absence and presence of the quencher, respectivel y, [Q] = the concentration of the quencher (i.e. compounds). KSV is obtained from t he Stern–Volmer plots b y the slope of the diagram I0/ I versus [Q]. Taking τ0 = 23 ns as the fluorescence lifetime of the EB– DNA s ystem [S5], the EB –DNA quenching constants (k q) of the compounds can be determined accordin g to eq.S3: K SV = kqτo . […]
[S2] Irgi, E.P.; Geromichalos, G.D.; Balala, S.; Kljun, J.; Kalogiannis, S.; Papadopoulos, A.; Turel, I.; Psomas, G. Cobalt(II) complexes with quinolone antimicrobial drug oxolinic acid: […]
[ S 5] Heller, D.P.; Greenstock, C.L. Fluorescence lifetime analysis of DNA intercalated ethidium bromide and quenching by free d ye. Biophys. Chem . 1994, 50, 305–312.

[1] = test system: Xanthomonas campestris ATCC 1395; test: Antimicrobial activity, MIC determination; format: cell-based; conditions: X. campestris; 24-h incubation, 28°C
Experimental: (§1) The in vitro antimicrobial activity of the compounds was evaluated by determining the minimum inhibitory concentration (MIC) against the Gram-positive microorganisms Staphylococcus aureus ATCC 6538 (S. aureus) and Bacillus subtilis ATCC 6633 (B. subtilis) and the Gram-negative microorganism Xanthomonas campestris ATCC 1395 (X. campestris). The affinity of the compounds for bovine serum albumin (BSA) and human serum albumin (HSA) was studied by fluorescence emission spectroscopy, and the corresponding binding constants were determined. Furthermore, the interaction of the compounds with calf-thymus DNA (CT DNA) was investigated to determine the possible mode of interaction by the following methods: (i) UV–vis spectroscopy (where the DNA-binding constants of the complexes (Kb) were also determined), (ii) DNA-viscosity measurements, (iii) cyclic voltammetry and (iv) competitive DNA-binding studies with the classic intercalator ethidium bromide (EB) performed by fluorescence emission spectroscopy.
(§2) Three bacterial strains, one Gram(−) (X. campestris) and two Gram(+) (S. aureus and B. subtilis), were used in order to test the antimicrobial activity of the compounds.
(§3) The antimicrobial activity of the compounds was evaluated b y determining their respective MIC values towards one Gram–( –) (Xanthomonas campestris ATCC 1395 (X. campestris)) and two Gram–(+) (Staphylococcus aureus ATCC 6538 (S. aureus) and Bacillus subtilis ATCC 6633 (B. subtilis)) bacterial species. Cultures of these microbial strains were grown on a rich selective agar medium and stored at 4°C. The selective media used were Nutrient Agar or Broth for B. subtilis and S. aureus, and Yeast Mold Agar or Broth for X. campestris . Cells picked from the surface of the stored cultures were used to initiate liquid pre–cultures of the same selective medium at an initial turbidity of roughl y 1 McFarland unit. Pre–cultures were incubated for 24 h in a rotar y sh aking incubator and subsequently the y were used to inoculate the test cultures used for the determination of MIC at an initial turbidity of 0.5 McFarland units. The test cultures consisted of Mueller–Hinton broth (Deben Diagnostics Ltd) containing different concentrations of the compounds. Different concentrations were achieved as follows: the compounds were freshly dissolved in DMSO to a concentration of 1 mg/mL and they were diluted with DMSO, using the method of progressive double dilution. Therefore, working solutions with decreasing concentrations of the compounds under investigation were achieved. The working solutions were subsequently diluted to the final desired concentration b y addition to the growth medium at a proportion of 2:98. MIC values were determined as the lowest concentrations of the tested compounds that inhibited visible growth of each respective organism after a 24–h incubation [ S1]. Bacterial growth was determined b y measuring the turbidit y of appropriatel y diluted cultures at 600 nm with reference to equall y diluted sterile growth medium and the inhibition achieved was calculated b y comparing the turbidit y of each culture to the average of the turbidit y of three non–inhibited cultures. All test cultures were grown in triplicates and for the determination of MIC, growth had to be inhibited in at least two cultures of the triplicate. In cubation temperatur e at all stages was 37°C ex cept for X. campestris t h at was cultivated at 28°C [S2]. […]
(§4) The fluorescence spectra of the compounds were recorded under the same experimental conditions and presented a low–intensity emission band in the region 405–410 nm .

[2] = test system: Bacillus subtilis ATCC 6633; test: Antimicrobial activity, MIC determination; format: cell-based; conditions: B. subtilis; 24-h incubation, 37°C
Experimental: as §1, §2, §3, §4

[3] = test system: Staphylococcus aureus ATCC 6538; test: Antimicrobial activity, MIC determination; format: cell-based; conditions: S. aureus; 24-h incubation, 37°C
Experimental: as §1, §2, §3, §4

[4] = biological target: T1, bovine serum albumin (BSA) (Bos taurus, UniProt P02769); test: Albumin binding by tryptophan fluorescence emission quenching
T1 construct: purchased
T1 sequence (P02769 25-607): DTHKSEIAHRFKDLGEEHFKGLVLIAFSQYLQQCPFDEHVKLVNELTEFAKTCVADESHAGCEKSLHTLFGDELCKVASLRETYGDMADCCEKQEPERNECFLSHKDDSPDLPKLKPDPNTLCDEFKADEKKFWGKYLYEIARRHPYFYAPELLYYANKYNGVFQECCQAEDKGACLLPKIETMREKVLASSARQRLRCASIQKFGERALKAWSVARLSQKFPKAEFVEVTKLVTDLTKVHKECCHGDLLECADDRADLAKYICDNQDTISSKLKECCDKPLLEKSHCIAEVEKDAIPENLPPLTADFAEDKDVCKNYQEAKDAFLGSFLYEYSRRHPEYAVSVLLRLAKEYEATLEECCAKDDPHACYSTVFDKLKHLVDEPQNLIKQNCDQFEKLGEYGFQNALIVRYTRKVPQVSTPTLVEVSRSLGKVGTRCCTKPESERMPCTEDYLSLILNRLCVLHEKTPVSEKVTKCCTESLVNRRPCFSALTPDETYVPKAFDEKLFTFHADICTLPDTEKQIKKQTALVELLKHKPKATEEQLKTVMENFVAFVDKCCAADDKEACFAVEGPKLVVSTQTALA
Experimental: (§5) Serum albumins (Sas) are the most abundant serum proteins and play a role in the circulatory system, primarily in the transport of drugs and other bioactive small molecules through the bloodstream.
(§6) The SA-quenching constants (kq) for the compounds (Table 5) were calculated with the Stern–Volmer quenching equation (Equations (S2) and (S3)).
(§7) Albumin-binding constants (K) were calculated using the Scatchard equation (Equation (S4)). […]
(§8) S2. Interaction with serum albumins
(§9) The albumin–binding study for the compounds was carried out b y fluorescence emission

[5] = biological target: T2, human serum albumin (HSA) (Homo sapiens, UniProt P02768); test: as above
T2 construct: purchased
T2 sequence (P02768 25-609): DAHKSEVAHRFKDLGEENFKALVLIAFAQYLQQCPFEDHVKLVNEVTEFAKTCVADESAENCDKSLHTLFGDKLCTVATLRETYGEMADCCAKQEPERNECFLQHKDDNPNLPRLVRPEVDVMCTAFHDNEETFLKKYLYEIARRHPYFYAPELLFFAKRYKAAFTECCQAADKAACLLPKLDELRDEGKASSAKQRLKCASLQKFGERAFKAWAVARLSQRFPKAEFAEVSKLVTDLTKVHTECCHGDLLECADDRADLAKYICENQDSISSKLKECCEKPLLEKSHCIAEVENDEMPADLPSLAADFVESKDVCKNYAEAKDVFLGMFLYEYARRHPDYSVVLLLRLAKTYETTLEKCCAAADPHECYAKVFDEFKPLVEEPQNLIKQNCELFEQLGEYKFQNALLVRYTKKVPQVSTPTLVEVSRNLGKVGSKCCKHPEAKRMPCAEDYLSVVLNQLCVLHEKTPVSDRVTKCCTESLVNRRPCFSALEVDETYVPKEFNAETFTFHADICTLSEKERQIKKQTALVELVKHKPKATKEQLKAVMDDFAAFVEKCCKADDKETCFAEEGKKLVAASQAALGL
Experimental: as §5, §6, §7, §8, §9

In the case of `CN1CCN(c2c(F)cc3c(=O)c(C(=O)[O-])cn(CCF)c3c2F)CC1.CN1CCN(c2c(F)cc3c(=O)c(C(=O)[O-])cn(CCF)c3c2F)CC1.[Zn+2].c1cnc2c(c1)ccc1cccnc12` [complex 14, [Zn(flrx)2(phen)]], the “Ksv, Stern–Volmer constant” value (EB–DNA adduct (CT DNA); EB–DNA adduct) was 3.03(±0.05) × 10^5 M^–1, the “ΔI/Io, percentage of EB–DNA fluorescence quenching” value (EB–DNA adduct (CT DNA); [EB] = 20 μM, [DNA] = 26 μM, λexc 540 nm, λem 592 nm) was 77.9% and the “EB–DNA relative fluorescence emission intensity, % of the initial (I/Io)” value (EB–DNA adduct (CT DNA); λemission = 592 nm, final value (up to), Figure S14) was 22.1%. The “kq, EB–DNA quenching constant” value (EB–DNA adduct (CT DNA); τo = 23 ns) was 1.32(±0.02) × 10^13 M^−1s^−1, the MIC [1] was 16 µg/mL and the “MIC (values in parentheses)” value [1] was 16.3 µM. For the same molecule, the MIC [2] was 8 µg/mL, the “MIC (values in parentheses)” value [2] was 8.1 µM and the MIC [3] was 8 µg/mL. For the same molecule, the “MIC (values in parentheses)” value [3] was 8.1 µM, the “K(BSA), BSA-binding constant” value ([4]; BSA 3 μM, buffer pH 7.0, Scatchard equation) was 5.56(±0.25) × 10^4 M^−1 and the “kq(BSA), BSA-quenching constant” value ([4]; BSA 3 μM, buffer pH 7.0, λexc 295 nm, Stern–Volmer, τ0 = 10^–8 s) was 1.61(±0.07) × 10^13 M^−1s^−1. The “BSA fluorescence, % of the initial fluorescence intensity (I/Io)” value ([4]; λem,max = 342 nm, final value of titration (Figure S11)) was 25.8%, the “K(HSA), HSA-binding constant” value ([5]; HSA 3 μM, buffer pH 7.0, Scatchard equation) was 6.16(±0.43) × 10^4 M^−1 and the “kq(HSA), HSA-quenching constant” value ([5]; HSA 3 μM, buffer pH 7.0, λexc 295 nm, Stern–Volmer, τ0 = 10^–8 s) was 1.10(±0.04) × 10^13 M^−1s^−1. The “HSA fluorescence, % of the initial fluorescence intensity (I/Io)” value ([5]; λem,max = 351 nm, final value of titration (Figure S10)) was 33.5%.
